System: Stomoxys calcitrans
Assay: Stable fly repellency and parasiticidal (diptericidal) efficacy on rats (Example 1)
Assay type: in vivo
Method: This study evaluated the effectiveness of a formulation of the invention containing fipronil and permethrin to repel and kill Stomoxys calcitrans on rats after a single administration. Rats in the treatment group (Group 2) were treated once on Day 0 with a topical formulation of the invention containing 9.2 (w/w) fipronil and 41.5% (w/w) permethrin in a solvent system containing DMDA and DGME in a ratio of 0.73:1, DMDA to DGME, to deliver a dose of 30 mg/kg permethrin and 6.7 mg/kg fipronil. Rats in Group 3 were treated with a formulation containing permethrin alone to deliver a dose of 30 mg/kg. The two treatment groups were compared with a control group treated with a solvent system placebo.
Flies are exposed to the treated rats for 1 hr., then removed. Dead flies are counted at the end of the exposure period and at 4 hr and 24 hr post-exposure. […] This finding is significant because fipronil is not known to have repellent activity.
The diptericidal efficacy of the formulations is shown in Table 1 and represented in FIG. 6. The data for repellency are shown in Table 2 and are represented in FIG. 7.

CC1(C)C(C=C(Cl)Cl)C1C(=O)OCc1cccc(Oc2ccccc2)c1 (stereo not shown) [Permethrin]
4 hr % efficacy (dead flies 4 hr post-exposure, single topical treatment Day 0): 82.0% | 24 hr % efficacy (dead flies 24 hr post-exposure, single topical treatment Day 0): 74.7% | EOE % efficacy (dead flies at end of 1 hr exposure period, single topical treatment Day 0): 74.2% | % Repellency (single topical treatment Day 0, measured 24 hours after exposure): 41.2%

Reference: patent US9949953B2, “Topical compositions comprising fipronil and permethrin and methods of use” (priority 2012, dated 2018)
